≈ marks a conversion by molar mass, not a printed value.

Series [1] in a line: Crossover trial of nebivolol exposure, alone versus in free combination with valsartan, once daily for 7 days. Format: in vivo, human. Here is the method:
[…], 3-way crossover trial was performed in healthy subjects to assess the pharmacokinetic (pK) and pharmacodynamic (pD) impact of administered valsartan on nebivolol.
28 subjects aged 19-45 were randomized to the following once-daily treatments for 7 days under fasted conditions: (A) nebivolol alone (20 mg tablet) and (B) concomitant nebivolol 20 mg+valsartan 320 mg in free combination. Blood samples were collected from each subject for pK analysis at the following time points: 0 hour (predose) on Days 1, 14, and 27 and at 0 hour (predose) and 1, 2, 4, 6, 10, 16, 24, 36, and 48 hours postdose on Days 7, 20, and 33.
The bioanalytical procedure used to measure plasma concentrations of nebivolol was a LC/MS/MS (liquid chromatography/tandem mass spectrometry) method.
Among the pK parameters measured were AUC0-τ,ss (area under the plasma concentration versus time curve from time 0 to the dosing interval, τ, at steady state); Cdmax,ss (maximum plasma drug concentration at steady state); Tmax,ss (time of maximum plasma drug concentration following drug administration at steady state); Cmin,ss minimum plasma drug concentration at steady state); Cav,ss (average plasma drug concentration at steady state); and CL/F (apparent total clearance from plasma after oral administration). These pK parameters were derived from plasma concentrations using noncompartmental analysis with the software program SAS (version 9.1.3). In addition, the 2-sided 90% confidence interval (CI) for the ratio of geometric means of Cmax and AUC0-τ,ss between nebivolol coadministered with valsartan and nebivolol alone were constructed.

Series [2] relates to patients with mild to moderate hypertension. In words: Population PK/PD analysis (Emax model) of nebivolol plasma concentration versus mean sitting DBP. Format: in vivo, human. Here is the method:
The study involved first determining the relationship between nebivolol plasma concentration and the therapeutic diastolic blood pressure (DBP)-reducing effect by nebivolol when administered alone. A population PK/PD analysis was performed to assess the relationship between nebivolol plasma concentration and its therapeutic DBP-reducing effect. The analysis utilized PK/PD data that was collected from patients with mild to moderate hypertension following a Phase 3, double-blind, placebo-controlled, multicenter study. During the study, patients were randomized to 7 parallel treatment arms wherein the patient received either a placebo or any of 6 different doses of nebivolol (between 1.25 and 40 mg). The patients were also stratified across all treatment arms by covariates of race (African American vs non-African American), age (<65 vs≧65 years), gender, diabetes status (history of diabetes mellitus vs no history of diabetes mellitus), and by metabolism of nebivolol (PM vs EM of CYP 2D6). Blood pressure data was collected from each patient initially and at days 28 and 84 of treatment. The study results were refined and updated using nonlinear mixed-effects modeling (NONMEM) software, version VII, with first-order conditional estimation/interaction method. […] Moreover, the EC50 (half maximal effective concentration) was determined.

[3] abbreviates: coadministered with valsartan versus nebivolol alone.

For the compound `OC(CNCC(O)C1CCc2cc(F)ccc2O1)C1CCc2cc(F)ccc2O1` (centres unmarked) [nebivolol], in series [1] (setting [3]), the “decrease in mean nebivolol AUC0-τ” value is given as 15-20% and the “decrease in mean nebivolol Cmax” value was 40-50%. Besides, in series [1] (human, plasma, oral, 20 mg nebivolol once daily for 7 days, alone or with 320 mg valsartan, healthy subjects, fasted, steady state, read-out: nebivolol AUC0-τ, Arithmetic Mean), the AUC came to 41.5 ng·h/mL. In addition, in series [1] (human, plasma, oral, 20 mg nebivolol once daily for 7 days, alone or with 320 mg valsartan, healthy subjects, fasted, steady state, read-out: nebivolol Cmax, Arithmetic Mean), the Cmax (as a rule, the maximum level reached in the sampled fluid or tissue) was 8.02 ng/mL. Moreover, in series [1] (in the presence of valsartan), the “Cmax and CSS,max reduction” value is “approximately 50%”; the “mean reduction in nebivolol Cavg and CSS,avg” value is on record as approximately 20%. Besides, in series [2] (Homo sapiens, Emax model, mean sitting DBP, Phase 3 data, nebivolol 1.25-40 mg, read-out: EC50 estimate of d,l-nebivolol concentrations (DBP PK/PD model)), the EC50 is 0.0179 ng/mL (≈ 0.0441 nM). The “Emax in DBP reduction” value in series [2] (after correction for the placebo effect) is listed as “approximately 5 mm Hg”.

Source of the values: US20140057954A1, “CHEMICAL COMPOSITION” (FOREST LABORATORIES HOLDINGS LTD., priority 2012, published 2014).
